Reference: US20220395500A1, “SMALL MOLECULE ACTIVATORS OF INTERFERON REGULATORY FACTOR 3 AND METHODS OF USE THEREOF” (Neuralexo, Inc., priority 2020, published 2022)
Read-outs that look alike come from different tables or passages of the source.

Assays:
[1] = THP1-Dual cytotoxicity (Cell Titer Glo, ATP); assay type: cell-based, human; settings: human, THP1-Dual cells, read-out: Thp1 cytotox CC50
Excerpt: FIG. 9C is a CC50 (50% cytotoxic concentration) graph of AV-C dependent IRF activation in THP1-Dual cells, determined with an 8-point dose response experiment. Cell viability was monitored based on quantitation of ATP present, as an indicator of metabolically active cells, where luminescence is proportional to the amount of ATP present, using Cell-Titer Glo (Promega).
(§1) The OTRADI Small Molecule Library of approximately 246,000 diverse compounds (see below for description) was screened using the THP1-Dual based HTS platform described above. All transfer steps in the screen are fully automated, thus reducing variability. Primary screening included a single data point or dose for each molecule. After data normalization was applied for each assay run, “hit” selection was performed on the plates that pass the quality control (QC) criterion. Hits were defined as samples having values above the activity cutoff determined based on noise level of the assay to reduce false positive rates. In the pilot study discussed above this activity value was >3σ above the ISRE mean with the added criteria of NFκB activation being lower than […] from the mean to identify IRF selective compounds. The ratio of ISRE:NFκB activity was also calculated as a selectivity index for prioritizing hit selection. Primary hits underwent secondary screening to determine the 50% effective concentration (EC50) and 50% cytotoxic concentration (CC50) of these agents using an 8-point dose-response curve in the human THP1-Dual cells. Cytotoxicity was measured in the plate using Cell Titer Glo (Promega). Identified candidate compounds were further screened (orthogonal screen) for cross species activity in the validated mouse J774-Dual assay using an 8-point dose-response format to determine EC50 and CC50 values as well as ISRE:NFκB ratios. A general process flow for the experimental design laid out above is depicted at FIG. 12.

[2] = test system: IRF-Lucia luciferase reporter (ISRE) in J774-Dual cells; experiment: J774-Dual IRF-Lucia luciferase reporter assay (ISRE activation); assay type: cell-based, mouse; settings: for J774 IRF % activation at peak: Mouse Reporter Cell Line J774; for EC50: Mus musculus, J774, Mouse Reporter Cell Line J774, read-out: J774 IRF EC50
Description: First, optimal assay conditions and assay quality in 384-well format were determined. As mentioned, the mouse macrophage J774 cell line (J774-Dual, InvivoGen) stably transfected with the same inducible reporters described above (e.g., IRF-Lucia luciferase and NF-κB-SEAP) was used. The responsiveness of the J774-Dual cell line was investigated in an array of assay conditions to obtain sensitive and reproducible results for the activation of the IRF and NF-κB reporters. An optimal plating density and conditions for these cells was established for these cells in a 384-well format. Assay work-flow is similar to that discussed above for the THP1-Dual assay without a need for cell differentiation. Thus, cells are seeded directly in growth medium and incubated at 37° C. in a 5% C02 incubator for 24 hours prior to the programmed treatments being added as described herein.
The primary high throughput screen used the HTS platform of human THP1 monocyte cells containing the IRF-Lucia luciferase and NFκB-SEAP (secreted embryonic alkaline phosphatase) dual reporter (THP1-Dual, Invivogen), enabling the simultaneous study of the IRF and NFκB signaling pathways respectively. As discussed, the Lucia luciferase reporter gene is under the control of an ISG54 (interferon-stimulated gene) minimal promoter in conjunction with five interferon-stimulated response elements (ISRE). The SEAP gene is driven by an IFNβ minimal promoter fused to five copies of the NFκB consensus transcriptional response element and three copies of the c-Rel binding site. Both IRF-Lucia luciferase and NFκB-SEAP reporter proteins are secreted and readily measurable in the cell culture supernatant when using QUANTI-Luc™ and QUANTI-Blue™ detection reagents, respectively. Identified “hits” were confirmed in a secondary screen with an 8-point dose response curve. Hits were further screened for activity in the mouse using the mouse J774 macrophage-like cell line containing the identical reporter constructs (J774-Dual, Invivogen).
as §1

J774-Dual cytotoxicity = assay type: cell-based, mouse; settings: mouse, J774-Dual cells, read-out: J774 cytotox CC50
Description: The OTRADI Small Molecule Library of approximately 246,000 diverse compounds (see below for description) was screened using the THP1-Dual based HTS platform described above. All transfer steps in the screen are fully automated, thus reducing variability. Primary screening included a single data point or dose for each molecule. After data normalization was applied for each assay run, “hit” selection was performed on the plates that pass the quality control (QC) criterion. Hits were defined as samples having values above the activity cutoff determined based on noise level of the assay to reduce false positive rates. […] The ratio of ISRE:NFκB activity was also calculated as a selectivity index for prioritizing hit selection. Primary hits underwent secondary screening to determine the 50% effective concentration (EC50) and 50% cytotoxic concentration (CC50) of these agents using an 8-point dose-response curve in the human THP1-Dual cells. Cytotoxicity was measured in the plate using Cell Titer Glo (Promega). Identified candidate compounds were further screened (orthogonal screen) for cross species activity in the validated mouse J774-Dual assay using an 8-point dose-response format to determine EC50 and CC50 values as well as ISRE:NFκB ratios. A general process flow for the experimental design laid out above is depicted at FIG. 12.

[3] = test system: IRF-Lucia luciferase reporter (ISRE) in THP1-Dual cells; experiment: THP1-Dual IRF-Lucia luciferase reporter assay (ISRE activation); assay type: cell-based, human; settings: THP1-Dual; for EC50: Homo sapiens, read-out: THP1 IRF EC50
Description: THP1 Dual (InvivoGen) cell suspensions were cultured in RPMI 1640 (Hyclone, Logan, Utah) supplemented with 10% fetal bovine serum (Hyclone), 100 U/mL Normocin (Invivogen), and 50 U/mL PenStrep (Gibco, Dublin, Ireland) between a density of 7·10^5-2·10^6 cells/mL. Every other passage, media was supplemented with 5 U/mL Blasticidin and 100 U/mL Zeocin to maintain the expression constructs. White, flat-bottom 384-well plates (Greiner, Kremsmunster, Austria, 781080) were seeded with 2.5·10^4 cells/well in a total of 50 μL media containing 5 ng/mL phorbolmyristic acid (PMA) using a Matrix WellMate (Thermo Scientific) dispenser. After 48 hours of incubation at 37° C., media was removed using a BioTek ELx405 CW plate washer set to aspirate and wash each well three times with 65 μL 1×PBS. Plates were reloaded with 50 μL media without PMA and treatments added. Lipopolysaccharide in dimethylsulfoxide (DMSO) was transferred to control wells using a HP D300 microdispenser to a final concentration of 313 ng/mL. Compounds from chemical library plates were copied using a Sciclone (Caliper LifeSciences) mounted with a 384-pin transfer tool to obtain a final concentration of 10 μM. After incubation with treatments for 24 hours, 10 μL of supernatant media from each well was transferred into a white, flat-bottom 384-well plate for luminescence readout and a black-walled, clear flat-bottom 384-well plate for absorbance readout.
Specifically, to enable screening of novel chemical entities (NCEs) in a larger screening effort, a robust high-throughput cell-based assay system for primary hit identification of ISRE activators based on the above-mentioned target validation was desired. Human ISRE activity was verified using a THP-1 monocyte line containing the NF-κB-SEAP and IRF-Lucia luciferase dual reporter (THP1-Dual; Invivogen) that features two reporter genes, SEAP (secreted embryonic alkaline phosphatase) and Lucia luciferase, thereby enabling the simultaneous study of the NF-κB and IRF signalling pathways. The Lucia luciferase reporter is under the control of an ISG54 (interferon-stimulated gene) minimal promoter in conjunction with five IFN-stimulated response elements. The SEAP gene is driven by an IFN-β minimal promoter fused to five copies of the NF-κB consensus transcriptional response element and three copies of the c-Rel binding site. Both reporter proteins are readily measurable in the cell culture supernatant when using QUANTI-LUC™ and QUANTI-Blue SEAP detection reagents.
The responsiveness of the human THP-1 Dual cell line was evaluated in an array of assay conditions to obtain sensitive and reproducible results for the activation of IRF and NF-κB reporters. […] All transfer steps are fully automated using high throughput robotic equipment. Briefly, cells are seeded in differentiation medium using a Matrix WellMate fitted with the WellMate Stacker (Thermo Scientific) and incubated at 37° C. with 5% CO2 for 48 h. Following differentiation, cells are washed using a BioTek ELx405 Select CW plate washer and growth medium added with the Matrix WellMate. Programmed control treatments are added to wells using a D300 digital dispenser fitted with T8+ dispense heads (Hewlett Packard) designed to dispense nanoliter quantities of material. Compounds from library plates are added using a pin tool fitted to a Sciclone ALH 3000 Workstation (Caliper Life Sciences) programmed with Maestro v4.4. After treatment, plates are returned to incubators for 24 hours. To measure reporter expression, supernatant is collected using the Sciclone and dispensed into 2 plates: 1) a white 384-well assay plate for Lucia luminescence measurements and 2) a clear-bottom black 384-well assay plate for SEAP absorbance measurements.

[4] = Human Reporter Cell Line, 8-point dose response

SMILES | CC50 ([1]; Human Reporter Cell Line THP1) [µM] | CC50 (J774-Dual cytotoxicity; Mouse Reporter Cell Line J774) [µM] | EC50 ([3]; Human Reporter Cell Line THP1) [µM] | further results
Cc1ccc(-c2nc3cc(OCCCN4CCCC4)ccc3o2)cc1N [ND-82] | > 25 | > 25 | – | J774 IRF % activation at peak [2]: 22.57%; EC50 [2]: ~9.36 µM
COc1cc(C(=O)Nc2cc(-c3nc4ccccc4s3)ccc2C)cc(OC)c1OC [ND-37] | > 25 | > 25 | 11.8 | –
Cc1cc2nc(-c3ccc(C)c(NC(=O)c4ccc(N5CCCC5)c([N+](=O)[O-])c4)c3)oc2cc1C [ND-34] | > 25 | > 25 | ~11.4 | –
COc1ccc2oc(-c3ccc(C)c([N+](=O)[O-])c3)nc2c1 [ND-84] | > 25 | > 25 | ~19.6 | –
Cc1ccc2nc(-c3ccc(C)c(NC(=O)c4ccc(C)c([N+](=O)[O-])c4)c3)oc2c1 [ND-31] | 22.3 | > 25 | ~3.14 | –
COc1cc2nc(-c3ccccc3)nc(N3CCN(CCN4CCCC4)CC3)c2cc1OC [ND-98] | 18.1 | 19.3 | 3.03 | –
COC(=O)COc1cccc(NC(=O)c2ccc(NC(=O)c3ccco3)cc2)c1 [NC-1] | – | – | – | CC50 ([1]; Human Reporter Cell Line): 27.4 µM; EC50 [3, 4]: 2.55 µM; CC50 (J774-Dual cytotoxicity; Mouse Reporter Cell Line): > 25 µM
COc1ccc(C(=O)Nc2cc(-c3nc4cc(C)c(C)cc4o3)ccc2C)cc1N [ND-60] | > 25 | > 25 | ~6.31 | –
O=C(Nc1ccc(N2CCN(C(=O)c3ccccc3)CC2)cc1)c1ccc(-c2cccnc2)cc1 [NA-53] | – | – | – | CC50 ([1]; Human Reporter Cell Line): 12.3 µM; EC50 [3, 4]: ~1.48 µM; CC50 (J774-Dual cytotoxicity; Mouse Reporter Cell Line): 29.2 µM
O=C(Nc1nc2ccc3scnc3c2s1)c1ccc2ccccc2c1 [ND-58] | > 25 | > 25 | 2.8 | –
COC(=O)c1ccc(N2CCN(C(=O)c3cccs3)CC2)cc1 [NA-47] | – | – | – | CC50 ([1]; Human Reporter Cell Line): > 25 µM; EC50 [3, 4]: 0.358 µM; CC50 (J774-Dual cytotoxicity; Mouse Reporter Cell Line): > 25 µM
CC(C)c1ccc(C(=O)Nc2ccc(N3CCN(C(=O)c4ccco4)CC3)cc2)cc1 [NA-4] | – | – | – | CC50 ([1]; Human Reporter Cell Line): 37.8 µM; EC50 [3, 4]: ~13.2 µM; CC50 (J774-Dual cytotoxicity; Mouse Reporter Cell Line): > 25 µM
Cc1ccc(-c2nc3cc(OCCCCl)ccc3o2)cc1[N+](=O)[O-] [ND-81] | > 25 | > 25 | – | J774 IRF % activation at peak [2]: 23.19%; EC50 [2]: ~9.79 µM
COc1ccc2oc(-c3ccc(C)c(NC(=O)c4ccc(N5CCOCC5)c([N+](=O)[O-])c4)c3)nc2c1 [ND-35] | 35.7 | > 25 | 2.13 | –
COc1ccc(C(=O)Nc2nc(-c3cc4ccccc4oc3=O)cs2)nc1 [ND-27] | > 25 | > 25 | 4.68 | –
COc1ccc(C(=O)Nc2cc(-c3nc4cc(C)c(C)cc4o3)ccc2Cl)cc1[N+](=O)[O-] [ND-50] | > 25 | > 25 | ~11.9 | –
COc1c(Cl)cc(C(=O)Nc2cc(-c3nc4cc(C)c(C)cc4o3)ccc2C)cc1Cl [ND-69] | > 25 | > 25 | ~5.39 | –
COc1ccc(-c2nc3cc(C(C)C)ccc3o2)cc1NC(=O)c1cc(C)cc(C)c1 [ND-91] | > 25 | > 25 | ~5.87 | –
COc1ccc(C(=O)Nc2ccc(N3CCN(C(=O)c4cccs4)CC3)cc2)cc1[N+](=O)[O-] [NA-46] | – | – | – | CC50 ([1]; Human Reporter Cell Line): > 25 µM; EC50 [3, 4]: 0.109 µM; CC50 (J774-Dual cytotoxicity; Mouse Reporter Cell Line): > 25 µM
Cc1ccc(-c2nc3ncccc3o2)cc1NC(=O)c1cc(Br)ccc1Cl [ND-3] | 30.7 | > 25 | 3.14 | –
Cc1ccc(C(=O)Nc2ccc3oc(-c4cccnc4)nc3c2)c(Cl)c1 [ND-4] | 49.3 | > 25 | 3.13 | –
NC(=O)c1cc(NC(=O)c2ccccc2)ccc1N1CCOCC1 [NB-4] | > 25 | > 25 | ~72.1 | activation at 25 µM ([3]; 24 h, Human Reporter Cell Line THP1, @25 uM, read-out: THP1 IRF % activation at peak): 5.61%
Cc1ccc(-c2nc3ccccc3o2)cc1NC(=O)c1ccc(C)c([N+](=O)[O-])c1 [ND-30] | > 25 | > 25 | 15.2 | –
O=C(Nc1ccc(N2CCN(C(=O)c3cccs3)CC2)cc1)c1cc(Cl)ccc1Cl [NA-43] | – | – | – | CC50 ([1]; Human Reporter Cell Line): > 25 µM; EC50 [3, 4]: ~10.8 µM; CC50 (J774-Dual cytotoxicity; Mouse Reporter Cell Line): > 25 µM
